8 compounds from ChEMBL document CHEMBL4138108, “Novel amidino substituted benzimidazole and benzothiazole benzo[b]thieno-2-carboxamides exert strong antiproliferative and DNA binding properties” (Eur J Med Chem, 2017) can be followed below.

In one data set the test system is SW-620. The data set is described as follows: Antiproliferative activity against human SW620 cells after 72 hrs by MTT assay. The class given is functional, cell-based. The note with it: SW-620, 72 h. A general note: Tetrazolium assays rely on reduction of a dye to a coloured formazan, in cell work by metabolically active cells.
In the next data set the test system is HepG2. Kind of data set: Antiproliferative activity against human HepG2 cells after 72 hrs by MTT assay. The note with it: HepG2, 72 h. The data set is classed as functional, cell-based.
In another data set the test system is CFPAC-1. The data set is described as follows: Antiproliferative activity against human CFPAC-1 cells after 72 hrs by MTT assay. The data set is classed as functional, cell-based. As to conditions: CFPAC-1, 72 h.
A further data set has as its system HeLa. The data set is described as follows: Antiproliferative activity against human HeLa cells after 72 hrs by MTT assay. The class given is functional, cell-based.
A further data set has as its system WI-38. The data set is described as follows: Cytotoxicity against human WI38 cells after 72 hrs by MTT assay. The data set is classed as cell-based. The note with it: WI-38, 72 h.
Data set [1] can be described thus: Drug uptake in nucleus of human 786-O cells at 10 uM after 4 hrs by propidium iodide staining-based fluorescence microscopic analysis. The class given is ADME, subcellular. As to conditions: 786-0, 4 h.
In data set [2] the test system is Calf thymus DNA. Kind of data set: Binding affinity to calf thymus duplex DNA assessed as change in melting temperature at drug to DNA ratio of 0.5 measured for every mins by spectrophotometric analysis. As to conditions: Bos taurus. The data set is classed as nucleic-acid assay.
The test system of data set [3] is Calf thymus DNA. The data set is described as follows: Binding affinity to calf thymus duplex DNA assessed as change in melting temperature at drug to DNA ratio of 1 measured for every mins by spectrophotometric analysis. The note with it: Bos taurus. The class given is nucleic-acid assay.
Data set [4] deals with Calf thymus DNA. Kind of data set: Binding affinity to calf thymus duplex DNA assessed as hypochromic effect up to drug to DNA ratio of 1 by UV-visible spectroscopic method. The class given is nucleic-acid assay. The note with it: Bos taurus.
Data set [5] deals with Calf thymus DNA. Kind of data set: Binding affinity to calf thymus duplex DNA assessed as bathochromic shift at drug to DNA ratio of 1 to 8 by UV-visible spectroscopic method. The note with it: Bos taurus. The class given is nucleic-acid assay.
Data set [6] addresses T1, DNA topoisomerase 1 (Homo sapiens) (UniProt P11387).
T1 sequence (whole entry): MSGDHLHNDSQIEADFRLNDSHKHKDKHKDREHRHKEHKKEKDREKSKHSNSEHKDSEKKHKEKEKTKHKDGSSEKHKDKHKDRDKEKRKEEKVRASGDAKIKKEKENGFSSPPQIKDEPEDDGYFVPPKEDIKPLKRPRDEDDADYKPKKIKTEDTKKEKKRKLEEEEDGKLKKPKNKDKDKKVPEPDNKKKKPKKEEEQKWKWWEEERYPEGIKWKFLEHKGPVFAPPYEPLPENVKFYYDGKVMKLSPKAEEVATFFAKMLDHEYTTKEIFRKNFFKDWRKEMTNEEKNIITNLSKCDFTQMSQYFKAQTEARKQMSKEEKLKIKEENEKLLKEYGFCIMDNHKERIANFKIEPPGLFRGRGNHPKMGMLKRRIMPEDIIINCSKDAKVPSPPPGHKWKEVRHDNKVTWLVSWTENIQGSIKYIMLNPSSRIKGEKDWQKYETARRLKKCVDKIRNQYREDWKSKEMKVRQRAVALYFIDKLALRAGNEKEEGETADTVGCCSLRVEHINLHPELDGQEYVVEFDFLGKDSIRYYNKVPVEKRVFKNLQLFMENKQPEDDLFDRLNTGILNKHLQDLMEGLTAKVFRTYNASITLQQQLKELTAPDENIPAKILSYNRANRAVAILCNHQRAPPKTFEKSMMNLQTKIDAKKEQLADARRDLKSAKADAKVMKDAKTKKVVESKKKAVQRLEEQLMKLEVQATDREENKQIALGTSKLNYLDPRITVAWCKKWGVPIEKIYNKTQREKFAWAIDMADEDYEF
The data set is described as follows: Inhibition of human topoisomerase-1 assessed as increase in accumulation of supercoiled pUC19 DNA at 1 to 50 uM by ethidium bromide staining based agarose gel electrophoresis.

In data set [7] the test system is Calf thymus DNA. Kind of data set: Binding affinity to calf thymus duplex DNA assessed as hyperchromic effect at drug to DNA ratio of 1 to 8 by UV-visible spectroscopic method. As to conditions: Bos taurus. The data set is classed as nucleic-acid assay.
Data set [8] addresses T1, DNA topoisomerase 1 (Homo sapiens). The data set is described as follows: Inhibition of human topoisomerase-1 assessed as increase in accumulation of supercoiled pUC19 DNA at 1 to 50 uM in absence of ethidium bromide staining by agarose gel electrophoresis.
The target is the same in data set [9]. The data set is described as follows: Poison activity at human topoisomerase-1 assessed as increase in relaxation of supercoiled pUC19 DNA at 1 to 50 uM by ethidium bromide staining based agarose gel electrophoresis.
Data set [10] deals with Calf thymus DNA. The data set is described as follows: Binding affinity to calf thymus duplex DNA by CD spectrum analysis. The class given is nucleic-acid assay. As to conditions: Bos taurus.
Data set [11] has as its system Calf thymus DNA. The data set is described as follows: Binding affinity to calf thymus duplex DNA assessed as hypochromic effect up to drug to DNA ratio of 8 by UV-visible spectroscopic method. The data set is classed as nucleic-acid assay. The note with it: Bos taurus.
Data set [12] relates to Calf thymus DNA. The data set is described as follows: Binding affinity to calf thymus duplex DNA assessed as bathochromic shift up to drug to DNA ratio of 8 by UV-visible spectroscopic method. The class given is nucleic-acid assay. The note with it: Bos taurus.
The test system of data set [13] is Calf thymus DNA. The data set is described as follows: Binding affinity to calf thymus duplex DNA assessed as hyperchromic effect up to drug to DNA ratio of 8 by UV-visible spectroscopic method. The class given is nucleic-acid assay. The note with it: Bos taurus.
The test system of data set [14] is Calf thymus DNA. The data set is described as follows: Binding affinity to calf thymus duplex DNA assessed as change in melting temperature at drug to DNA ratio of 0.25 measured for every mins by spectrophotometric analysis. The class given is nucleic-acid assay. The note with it: Bos taurus.
Data set [15] can be described thus: Binding affinity to AT-rich site of 3'-end radiolabelled 265 bp pBS DNA at 0.01 to 10 uM after 15 mins by DNase I footprinting assay.
Data set [16] has as its target T1, DNA topoisomerase 1 (Homo sapiens). The data set is described as follows: Poison activity at human topoisomerase-1 assessed as increase in relaxation of supercoiled pUC19 DNA at 50 uM by ethidium bromide staining based agarose gel electrophoresis.

The source made the active and inactive calls. No cut-off for these calls is given here. A value given as a limit tells only on which side of the number the result lay.

Broadly, the IC50 is the concentration needed to halve the response being measured. Lower therefore signals inhibition by little substance. Usually ΔTm stands for the change in melting temperature against a reference sample. Regarding `Cl.O=C(Nc1nc2ccccc2[nH]1)c1sc2cc(C3=NCCN3)ccc2c1Cl`, the IC50 in the data set on SW-620 amounted to 5.49 µM; with HepG2, 2.47 µM; in the data set with CFPAC-1 it was 4.84 µM; with HeLa it was 2.31 µM; in the data set on WI-38 it was 2.97 µM. In addition, the Drug uptake entry in [1] is reported as “Active”. Further, the ΔTm in the data set with Calf thymus DNA [2] amounted to 3.7 °C; in the data set on Calf thymus DNA [3] it was 6.3 °C. In addition, the result with Calf thymus DNA [4], in the data set on Calf thymus DNA [5] and in the data set on Calf thymus DNA [7] was Active. The inhibition result in [6] and in data set [8] was “Active” throughout. Also, the outcome in data set [9] was inactive.

Take `O=C(Nc1nc2ccccc2s1)c1sc2cc(C3=NCCN3)ccc2c1Cl`: the IC50 in the data set on SW-620 stood at 7.05 µM; in the data set on HepG2, 14.2 µM; in the data set on CFPAC-1 it was 5.04 µM; in the data set on HeLa it was 1.16 µM; with WI-38 it was 4.24 µM. Besides, the inhibition entry in [6] is “inactive”. The Activity entry in the data set on Calf thymus DNA [10] was “Dose-dependent effect”. Besides, the outcome in the data set with Calf thymus DNA [11] was Active. In addition, the outcome (in the data set with Calf thymus DNA [12]; in data set [9]; in the data set on Calf thymus DNA [13]) was inactive.

With `Cl.Cl.O=C(Nc1nc2ccc(C3=NCCN3)cc2[nH]1)c1sc2cc(C3=NCCN3)ccc2c1Cl`, the IC50 with SW-620 was > 100 µM; in the data set with HepG2, > 100 µM; in the data set with CFPAC-1 it was > 100 µM; in the data set with HeLa it was > 100 µM; with WI-38, 56.3 µM. For the same compound, the Drug uptake entry in data set [1] is reported as “Active”. Moreover, the ΔTm was determined as 14.6 °C with Calf thymus DNA [14] and 16.6 °C with Calf thymus DNA [2]. Moreover, the outcome (in the data set with Calf thymus DNA [4]; in the data set on Calf thymus DNA [5]; in data set [15]; in the data set with Calf thymus DNA [7]) was Active. For the same compound, the inhibition result in [6] and in [8] was “Active” in each case. Further, the outcome in data set [9] was inactive.

As for `Cl.O=C(Nc1nc2ccc(C3=NCCN3)cc2[nH]1)c1sc2ccccc2c1Cl`, the IC50 worked out at 10.3 µM with SW-620; 5.41 µM in the data set with HepG2; 20.7 µM with CFPAC-1; 3.89 µM in the data set on HeLa; 9.94 µM with WI-38. Further, the Drug uptake result in [1] is “Active”. In addition, the ΔTm stood at 1.9 °C in the data set with Calf thymus DNA [2] and 3.9 °C in the data set on Calf thymus DNA [3]. Moreover, the result in the data set on Calf thymus DNA [4], in the data set with Calf thymus DNA [5] and in the data set on Calf thymus DNA [7] was Active. Moreover, the Activity result with Calf thymus DNA [10] is “Dose-dependent effect”. Besides, the outcome in data set [16] was inactive.

As to `O=C(Nc1nc2ccc(C3=NCCN3)cc2s1)c1sc2cc([N+](=O)[O-])ccc2c1Cl`, the IC50 with SW-620 was 69.1 µM; with HepG2, 6.43 µM; in the data set on CFPAC-1 it was 6.81 µM; in the data set on HeLa, 5.58 µM; in the data set with WI-38 it was > 100 µM. Further, the ΔTm in the data set with Calf thymus DNA [2] was -0.8 °C; in the data set on Calf thymus DNA [3], 0.8 °C.

As to `O=C(Nc1nc2ccc(C3=NCCN3)cc2s1)c1sc2ccccc2c1Cl`, the IC50 with SW-620 was 4.44 µM; in the data set with HepG2, 4.51 µM; in the data set on CFPAC-1 it was 4.18 µM; in the data set with HeLa, 4.09 µM; in the data set on WI-38, 5.06 µM. The ΔTm in the data set on Calf thymus DNA [2] is -0.2 °C; with Calf thymus DNA [3], -1.7 °C.

For the compound `O=C(Nc1nc2ccc([N+](=O)[O-])cc2[nH]1)c1sc2cc(C3=NCCN3)ccc2c1Cl`, the IC50 in the data set with SW-620 amounted to 6.18 µM; in the data set with HepG2 it was 2.23 µM; with CFPAC-1 it was 6.93 µM; in the data set with HeLa, 2.61 µM; with WI-38 it was 4.06 µM. Further, the ΔTm in the data set with Calf thymus DNA [2] and in the data set with Calf thymus DNA [3] was 2.4 °C each time. Also, in the data set with Calf thymus DNA [4], the outcome was Active. The inhibition entry in [6] and in data set [8] was “Active” throughout. Besides, the outcome in data set [9] was inactive.

For `O=C(Nc1nc2ccc(C3=NCCN3)cc2s1)c1sc2cc(C3=NCCN3)ccc2c1Cl`, the IC50 in the data set on SW-620 came out at 82 µM; in the data set with HepG2, 95.2 µM; with CFPAC-1, 61.3 µM; with HeLa, 49.1 µM; in the data set on WI-38 it was 86.5 µM. Besides, the ΔTm with Calf thymus DNA [2] was determined as 1 °C; with Calf thymus DNA [3], 1.5 °C.
